Measurements reported in a melting point compilation (Tetko et al.).

Row | Compound | melting point [°C]
1 | O=C1c2ccccc2C(=O)N1CC1CO1 (stereo unspecified) | 98 to 100
2 | O=C(O)CCc1cnn(-c2ccccc2)c1 | 80 to 89
3 | N#CCc1c(C#N)c(N)nc(N2CCCCC2)c1C#N | 142 to 144
4 | CC(C)(C)OC(=O)NCCCC(N)=S | 94 to 96
5 | ON=Cc1cnc2ccccn12 | 183 to 185
6 | O=C1c2ccccc2N2C(=O)CCC2(C(=O)O)N1Cc1ccccc1 (stereo unspecified) | 134 to 136
7 | CCN(CC)c1ccc(N)cc1S(=O)(=O)Nc1ccc(OC)cc1 | 107 to 109
8 | O=C(c1cccc(F)c1)c1ccccn1 | 37 to 39
9 | O=c1n(CCO)nc2ccccn12 | 134 to 136
10 | NC(=O)c1nnn(-c2ccccc2)c1N | 160 to 162
11 | CCc1n[nH]c(N)c1Br | 117 to 119
12 | CC1CCCCN1S(=O)(=O)c1cccc(C(=O)O)c1 (stereo unspecified) | 149 to 151
13 | COc1ccc(C(=O)O)nn1 | 139 to 141
14 | O=C1CCc2c(Cl)cc(Cl)cc21 | 109 to 111
15 | CCC(=O)N1CCCC(C(=O)O)C1 (stereo unspecified) | 117 to 119
16 | Cc1cccc(-c2nc3cc(Cl)ccc3[nH]2)c1O | 249 to 251
17 | Nc1cc(-c2ccc(Br)s2)n[nH]1 | 141 to 143
18 | Nc1cc(F)c(N2CCCCC2)c(F)c1 | 70 to 72
19 | CC(=O)Nc1cccc(F)c1C(=O)O | 202 to 204
20 | Cc1cc(Cl)cc2cccnc12 | 62 to 64
21 | CC1=CC(C)=NS(=O)(=O)N1 | 119 to 121
22 | NC(=S)c1cccc(C(F)(F)F)c1 | 66 to 68
23 | Nc1ccc(-n2cncn2)c(Cl)c1 | 131 to 133
24 | Cc1cc(C(=O)CCl)c(C)n1NC(=O)c1ccccc1 | 141 to 143
25 | ON=C(C(=NO)c1ccccc1)c1ccccc1 | 245 to 246

Row | Compound | melting point [°C]
26 | Cc1ccc(NC(=O)CCl)c(C)c1 | 153 to 155
27 | Cc1cc(Oc2ccccc2)c2cc([N+](=O)[O-])ccc2n1 | 167 to 169
28 | O=S(=O)(Cl)c1cncc(F)c1 | 35 to 37
29 | O=S(=O)(Cl)c1cccc(-c2cccs2)c1 | 57 to 59
30 | NC1CCCCC1CO (stereo unspecified) | 132 to 135
31 | O=C(O)c1cc(S(=O)(=O)N2CCCCC2)ccc1N1CCCCC1 | 143 to 145
32 | O=[N+]([O-])c1cccc2c1CCCN2 | 79 to 81
33 | NCCn1ncc2ccccc2c1=O | 87 to 89
34 | CCCNS(=O)(=O)c1ccc(/C=C/C(=O)O)cc1 | 235 to 237
35 | O=C(O)c1ccc2c(c1)NC(=O)C1CCCN21 (stereo unspecified) | 250 to 252
36 | CCOC(=O)c1ccc(S(=O)(=O)Cl)c(Br)c1 | 48 to 50
37 | Nc1ccc(Oc2ccc(Cl)cc2)cc1C(=O)O | 177 to 179
38 | CCn1c(C)nc2cc(S(=O)(=O)C(F)F)ccc21 | 161 to 163
39 | Nc1nc(-c2ccc(C3CCCCC3)cc2)cs1 | 227 to 229
40 | O=C(CCl)Nc1cccc(C(=O)N2CCSCC2)c1 | 152 to 154
41 | CCCc1c(C(=O)O)[nH]c(C)c1C(=O)OC | 215 to 217
42 | Cc1ccc2c(c1C)NC(=O)C2=O | 228 to 232
43 | O=C(O)c1cn(-c2cccc(C(F)(F)F)c2)nn1 | 149 to 151
44 | CC(C)(C)c1ccc2cc(C(=O)O)[nH]c2c1 | 157 to 159
45 | Cc1cc(N)n(C(C)(C)C)n1 | 66 to 68
46 | CC(C)(C)c1ccc(C2CCCC(O)C2)cc1 (stereo unspecified) | 75 to 77
47 | CC(=O)Nc1ccc(S(=O)(=O)NC(C)C(=O)O)cc1 (stereo unspecified) | 178 to 180
48 | COc1cc(C(=O)O)ccc1OC(F)F | 171 to 173
49 | NS(=O)(=O)CC(F)(F)F | 97 to 99
50 | C#CCOc1ccc(N)cc1 | 49 to 51

Row | Compound | melting point [°C]
51 | Cc1nnc2[nH]cc(C(=O)NN)cc1-2 | 289 to 291
52 | N#Cc1ccc2[nH]c(=O)[nH]c2c1 | 296 to 298
53 | CC(C)C(C(N)=O)c1cccnc1 (stereo unspecified) | 176 to 178
54 | Cn1ccc(C(=O)O)cc1=O | 219 to 221
55 | CNc1cc(C(F)(F)F)nc2ccccc12 | 159 to 161
56 | Nc1ccnc(Oc2ccccc2Br)c1 | 108 to 110
57 | N#Cc1nc2ccccc2cc1Br | 139 to 141
58 | CS(=O)(=O)Nc1cccc(O)c1 | 93 to 95
59 | Cc1ccc(S(=O)(=O)c2ccc(NN)cc2)cc1 | 173 to 175
60 | Cc1sc2[nH]c(-c3ccc(Cl)nc3)nc(=N)c2c1C | 133 to 135
61 | O=Cc1cnc2ncccn12 | 197 to 199
62 | O=C(Cc1ccccc1)NC1CCNCC1 | 139 to 141
63 | COC(=O)c1cc(S(=O)(=O)Cl)c(F)cc1F | 104 to 106
64 | C[C@H](N)C(N)=O | 67 to 69
65 | O=S(=O)(c1ccccc1)n1c(I)cc2cccnc21 | 109 to 111
66 | O=C(O)C1CC2(CCCC2)C1 | 29 to 31
67 | O=C1NC(=O)C2(CCc3ccccc32)N1 (stereo unspecified) | 229 to 231
68 | CC1C(=O)Nc2cc(C(=O)O)ccc2N1C (stereo unspecified) | 289 to 291
69 | Ic1ccccc1-c1nn[nH]n1 | 217 to 219
70 | NC(=O)c1ccc(N)cn1 | 169 to 171
71 | NS(=O)(=O)CCCN1C(=O)c2ccccc2C1=O | 173 to 175
72 | COC(=O)Nc1ccc(N)cc1 | 89 to 91
73 | COc1ccccc1NCC(=O)O | 159 to 161
74 | CC(CC(=O)O)c1ccncc1 (stereo unspecified) | 171 to 173
75 | CCOC(=O)C(C#N)=Cc1ccncc1 | 101 to 103

Row | Compound | melting point [°C]
76 | NNC(=O)Cc1ccccc1Cl | 154 to 156
77 | ClCc1csc(Cc2ccc(Cl)cc2)n1 | 68 to 70
78 | Cc1nc2ccccn2c1P(c1ccccc1)c1ccccc1 | 98 to 100
79 | Clc1nnc(-c2ccccc2)c2ccccc12 | 156 to 158
80 | O=C(O)C1(Br)CCCCC1 | 57 to 59
81 | Cn1cc(-c2nnc(N)o2)cn1 | 253 to 255
82 | O=C(O)C1CCN(c2ncccn2)CC1 | 94 to 96
83 | Cc1ccc(C(=O)NC(CC(=O)O)c2ccccc2)cc1 (stereo unspecified) | 190 to 192
84 | O=S(=O)(c1ccc2oc(S)nc2c1)N1CCCCC1 | 139 to 141
85 | CC(O)(Cc1ccccc1)C(=O)O (stereo unspecified) | 90 to 92
86 | Nc1nnc(C2CC2)o1 | 170 to 172
87 | CCC(=CC(=O)O)c1ccc(OC)cc1 | 130 to 132
88 | Cc1nc2cc(F)ccc2cc1C(=O)O | 262 to 264
89 | C=CC(=O)Nc1cc(OC)c(Cl)cc1OC | 124 to 126
90 | O=C(O)C=Cc1ccc(Oc2cccnc2)c(F)c1 | 202 to 204
91 | NCC(O)C1CCCCC1 (stereo unspecified) | 85 to 87
92 | N#Cc1ccc2[nH]cc(C=O)c2c1 | 239 to 241
93 | Cc1cc(N)ccc1S(C)(=O)=O | 144 to 146
94 | N#Cc1cnc2ccccn12 | 154 to 156
95 | Cc1ccc(CNC(=S)Nc2ccccc2)cc1 | 147 to 149
96 | O=C(O)CCOc1ccc(Br)cc1 | 145 to 147
97 | CC1(c2ccco2)NC(=O)NC1=O (stereo unspecified) | 179 to 181
98 | OCCc1cc2cc(Br)ccc2o1 | 67 to 69
99 | Cc1nnc(NC(=O)OCC(F)(F)F)s1 | 231 to 233
100 | OCC1CSCCN1 (stereo unspecified) | 84 to 86

Row | Compound | melting point [°C]
101 | COCCOc1ccc(Cl)cc1C#N | 64 to 66
102 | CCOC(C(=O)O)(c1ccccc1)c1ccccc1 | 113 to 115
103 | COc1ccc2c(c1)C(=NO)C(=O)N2 | 236 to 238
104 | CCn1c(CCC(=O)O)nc2cc(S(=O)(=O)N(C)C)ccc21 | 186 to 188
105 | CC1CNc2c(cccc2S(N)(=O)=O)C1 (stereo unspecified) | 162 to 164
106 | Nc1nc(Br)cn2ccnc12 | 215 to 217
107 | Cc1ccc(NC(N)=O)c(C)c1 | 215 to 217
108 | CCCS(=O)(=O)Nc1cccc(O)c1 | 101 to 103
109 | COc1ccc2c(c1)NC(=O)C2=O | 223 to 225
110 | CCOc1cc(C(=O)O)cc(Cl)c1O | 204 to 206
111 | Nc1cc(F)ccc1S(N)(=O)=O | 129 to 131
112 | Nc1ncc(-c2ccc(F)cc2)s1 | 209 to 211
113 | Cc1cc(C(=O)O)cc(S(=O)(=O)Cl)c1C | 171 to 173
114 | O=C(O)CCc1ncc(-c2ccccc2)o1 | 148 to 150
115 | CCOC(=O)C(=O)NN | 39 to 41
116 | O=C(O)c1c[nH]nc1-c1cccc(Cl)c1 | 251 to 253
117 | NS(=O)(=O)c1ccc(S(=O)(=O)Cl)cc1 | 144 to 146
118 | O=C(O)c1cc(S(=O)(=O)Nc2ccc(F)cc2)ccc1Cl | 205 to 207
119 | Cc1[nH]c2ccc(C(N)=O)cc2c1C | 169 to 171
120 | Nc1ccc(C(=O)NCCN2CCCC2)cc1 | 137 to 139
121 | Cc1ccc(CNC(=O)NCC(=O)O)cc1 | 174 to 176
122 | CCn1c(Cl)nnc1-c1ccccc1Cl | 123 to 125
123 | NC(=O)c1ccc(CCl)cc1 | 178 to 180
124 | COc1cccc2c1OCCC2=O | 80 to 82
125 | O=C(O)CC(=O)c1ccc(O)cc1 | 89 to 91

Row | Compound | melting point [°C]
126 | CC(C)C(N)c1nc(-c2nnc[nH]2)no1 (stereo unspecified) | 210 to 212
127 | O=C(CCl)NC(=O)NCCC1=CCCCC1 | 200 to 202
128 | ClCc1nc(-c2ccsc2)no1 | 52 to 56
129 | Nc1cc2c(cc1F)CCC(=O)N2 | 174 to 176
130 | NC(=O)CCn1c(S)nnc1-c1cccs1 | 219 to 221
131 | O=[N+]([O-])c1ccn(CCCBr)n1 | 35 to 37
132 | CC(C)(Cc1ccccc1)NC(=O)OC(C)(C)C | 51 to 53
133 | Cc1ccc(OCCC(=O)O)cc1C | 155 to 157
134 | CC(C)n1ncc2c(C(=O)O)cc(C3CC3)nc21 | 144 to 146
135 | CNc1cnccn1 | 44 to 46
136 | CCC(C)NS(=O)(=O)c1cccc(C(=O)O)c1 (stereo unspecified) | 155 to 157
137 | O=C(O)c1sc2cccc([N+](=O)[O-])c2c1Cl | 219 to 221
138 | Cc1cccc2[nH]cc(C=O)c12 | 188 to 190
139 | COc1ccccc1S(=O)(=O)Cl | 115 to 119
140 | CC(C)(C)OC(=O)Nc1cc2ccccc2cc1C(=O)O | 179 to 181
141 | O=C(O)c1cc(Cl)cc(Cl)c1I | 173 to 175
142 | COC(=O)c1cc(N)cc(Cl)c1 | 95 to 97
143 | c1ccc2sc(NC3CCCCC3)nc2c1 | 100 to 102
144 | CC(C)c1sc(N)nc1-c1ccccc1 | 231 to 233
145 | CCOC(=O)c1sc(N)c(C#N)c1C | 212 to 214
146 | CC(N)c1ccc2c(c1)NC(=O)CO2 (stereo unspecified) | 130 to 132
